Source: ChEMBL document CHEMBL1145331, “Synthesis of anthranylaldoxime derivatives as estrogen receptor ligands and computational prediction of binding modes” (J Med Chem, 2006)

Legend:
[1] = target: T1, Estrogen receptor (Homo sapiens) (UniProt P03372); assay: Displacement of [3H]estradiol from human ERalpha relative to estradiol
T1 sequence (whole entry): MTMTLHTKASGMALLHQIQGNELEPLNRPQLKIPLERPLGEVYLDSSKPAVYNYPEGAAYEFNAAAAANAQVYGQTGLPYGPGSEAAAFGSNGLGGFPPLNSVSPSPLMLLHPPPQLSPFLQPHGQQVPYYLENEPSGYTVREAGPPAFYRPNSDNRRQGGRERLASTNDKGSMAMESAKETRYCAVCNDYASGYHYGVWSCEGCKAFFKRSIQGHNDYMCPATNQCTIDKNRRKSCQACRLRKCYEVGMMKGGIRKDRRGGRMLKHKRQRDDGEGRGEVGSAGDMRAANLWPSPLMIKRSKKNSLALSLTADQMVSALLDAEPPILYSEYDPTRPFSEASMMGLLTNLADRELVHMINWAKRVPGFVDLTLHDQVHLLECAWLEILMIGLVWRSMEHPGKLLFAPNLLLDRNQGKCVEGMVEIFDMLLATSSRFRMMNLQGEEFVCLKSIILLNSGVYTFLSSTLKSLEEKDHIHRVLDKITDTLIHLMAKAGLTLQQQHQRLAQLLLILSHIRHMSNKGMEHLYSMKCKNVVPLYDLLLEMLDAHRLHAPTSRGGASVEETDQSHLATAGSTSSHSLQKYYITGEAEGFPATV

[2] = target: Estrogen receptor beta (Homo sapiens) (UniProt Q92731); assay: Displacement of [3H]estradiol from human ERbeta relative to estradiol
Chain of Estrogen receptor beta (Homo sapiens) (Q92731 whole entry): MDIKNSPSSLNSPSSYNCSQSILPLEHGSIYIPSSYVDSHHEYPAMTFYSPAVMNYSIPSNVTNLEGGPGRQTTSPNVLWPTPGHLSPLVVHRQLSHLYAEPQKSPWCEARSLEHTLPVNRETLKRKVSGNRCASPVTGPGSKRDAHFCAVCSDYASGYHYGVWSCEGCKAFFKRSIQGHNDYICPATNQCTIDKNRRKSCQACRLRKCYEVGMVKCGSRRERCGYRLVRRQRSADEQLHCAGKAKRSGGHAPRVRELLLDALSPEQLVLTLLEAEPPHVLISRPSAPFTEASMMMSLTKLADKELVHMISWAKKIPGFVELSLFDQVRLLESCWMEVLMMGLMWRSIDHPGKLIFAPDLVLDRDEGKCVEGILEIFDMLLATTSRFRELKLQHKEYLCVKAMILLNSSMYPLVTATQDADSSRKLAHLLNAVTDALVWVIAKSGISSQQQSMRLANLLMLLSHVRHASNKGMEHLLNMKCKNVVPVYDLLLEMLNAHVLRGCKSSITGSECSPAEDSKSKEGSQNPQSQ

[3] = target: T2, Estrogen receptor (Homo sapiens) (UniProt Q92731+P03372); assay: Ratio of RBA for human ERalpha to RBA for human ERbeta; assay type: protein assay
T2 sequence (Q92731 whole entry, looked up, one chain of several): as the sequence (Q92731 whole entry) above

[4] = target: T2, Estrogen receptor (Homo sapiens); assay: Ratio of RBA for human ERbeta to RBA for human ERalpha; assay type: protein assay
[5] = target: T2, Estrogen receptor (Homo sapiens); assay: Ratio of Kd for human ERalpha to Kd for human ERbeta; assay type: protein assay
Estrogen receptor = target: T3, Estrogen receptor (Homo sapiens, UniProt P03372); assay: Displacement of [3H]estradiol from human ERalpha
T3 sequence (P03372 whole entry): T1 sequence (whole entry)

SMILES	relative binding affinity (RBA) [1]	relative binding affinity (RBA) [2]	Selectivity ratio [3]	Selectivity ratio [4]	Selectivity ratio [5]	Kd (Estrogen receptor)
CNc1c(/C=N/O)ccc(-c2cccc(C)c2)c1-c1cccc(C)c1	3.91	2.13	2			
CNc1c(/C=N/O)ccc(-c2cccc(O)c2)c1-c1cccc(O)c1	0.14	0.05				
CNc1c(/C=N/O)ccc(-c2ccc(C)cc2)c1-c1ccc(C)cc1	0.95	1.86		2		
CNc1c(/C=N/O)ccc(-c2ccccc2)c1-c1ccc(O)cc1	1.17	0.72				
CNc1c(/C=N/O)ccc(-c2cccc(OC)c2)c1-c1cccc(OC)c1	0.65	0.14				
CNc1c(/C=N/O)ccc(-c2ccc(O)cc2)c1-c1ccc(O)cc1	1.96	0.14			36	
CNc1c(/C=N/O)ccc(-c2ccc(O)cc2)c1-c1ccccc1	5.38	1.11				3.7 nM
CNc1c(/C=N/O)ccc(-c2ccc(OC)cc2)c1-c1ccc(OC)cc1	2.33	0.47				
